Where two headings read alike, the source gives them in different places.
Tests used:
HCT116 cells = assay: p-H3 HCT-116 mitotic release cell proliferation assay (cellular CDK1); type: cell-based; details: Homo sapiens, HCT-116; Table O, cellular assay; read-out: CDK1 p-H3 IC50
Procedure, shortened: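 HCT116 cells arrested 16 h with 500 nM nocodazole, then exposed to compound for 4 h at 37 °C (0.1% DMSO). Lysates read by HTRF/FRET with donor and acceptor phospho-Histone H3 (Ser10) antibodies, ≥2 h at room temperature; CDK1 inhibition seen as loss of p-H3 on mitotic release.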

[1] = biological target: T1, Cyclin Dependent Kinase 1/Cyclin A2 (CDK1-cycA2) (Homo sapiens, UniProt P06493); assay: CDK1-cycA2 TR-FRET (Lance) enzyme assay; type: biochemical; details: for Ki: Table O, enzymatic assay; for FS CDK1/CDK2: fold selectivity, enzymatic Ki ratio
T1 construct: purchased ProQinase 0134-0054-1
T1 sequence (P06493 whole entry): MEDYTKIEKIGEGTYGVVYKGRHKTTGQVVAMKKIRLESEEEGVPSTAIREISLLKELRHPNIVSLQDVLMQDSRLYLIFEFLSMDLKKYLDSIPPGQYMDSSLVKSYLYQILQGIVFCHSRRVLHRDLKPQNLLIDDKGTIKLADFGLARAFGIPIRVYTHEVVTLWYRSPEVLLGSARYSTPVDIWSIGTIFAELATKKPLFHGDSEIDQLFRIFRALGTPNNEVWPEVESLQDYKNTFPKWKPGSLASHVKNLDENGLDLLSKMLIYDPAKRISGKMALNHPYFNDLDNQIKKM
T1 sequence (P20248 whole entry partner): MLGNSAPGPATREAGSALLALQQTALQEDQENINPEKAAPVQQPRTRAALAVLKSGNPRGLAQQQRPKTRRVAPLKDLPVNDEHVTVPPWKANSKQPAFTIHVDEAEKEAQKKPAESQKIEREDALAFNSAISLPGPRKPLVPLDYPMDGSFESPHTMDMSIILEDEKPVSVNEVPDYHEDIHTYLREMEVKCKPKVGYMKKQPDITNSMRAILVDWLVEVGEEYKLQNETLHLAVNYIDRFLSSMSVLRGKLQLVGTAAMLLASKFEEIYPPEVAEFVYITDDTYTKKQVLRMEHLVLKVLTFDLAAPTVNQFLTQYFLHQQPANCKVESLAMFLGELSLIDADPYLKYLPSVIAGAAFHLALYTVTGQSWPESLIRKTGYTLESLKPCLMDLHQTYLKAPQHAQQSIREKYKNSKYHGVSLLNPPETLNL
Procedure, shortened: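 Human CDK1/cyclin A2 pre-incubated 30 min with compound dose responses in 50 mM HEPES pH 7.5, 10 mM MgCl2, 2 mM TCEP, 0.05% BGG, 0.01% Brij 35. Reaction quenched with EDTA (15 mM final); TR-FRET readout using Eu-anti-phospho-4E-BP1, acceptor/donor ratio. Inhibition constants from Morrison equation.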

[2] = system: OVISE (JCRB1043, CCNE1-amplified); assay: OVISE EdU incorporation cell proliferation assay (CDK2-dependent); type: cell-based; details: for CDK2 cell potency compared with Comparator E: CDK2 OVISE cellular assay data; for IC50: cellular assay, read-out: CDK2 OVISE IC50; for FS SKOV-3/OVISE / FS p-H3/OVISE: fold selectivity; for FS p-H3/OVISE: cellular p-H3 IC50 over OVISE IC50; for CDK2 OVISE IC50 fold change in potency versus Comparator D: Table R; for CDK2 OVISE IC50 fold change in potency versus Comparator D / CDK2 OVISE IC50 fold change in potency versus Comparator E / improvement in CDK2 OVISE cell potency over Comparator C: in brackets after OVISE IC50; for CDK2 OVISE IC50 fold change in potency versus Comparator E: Table S; for increased fold-selectivity SKOV-3/OVISE over Comparator C: (+) sign after FS SKOV-3/OVISE; for improvement in CDK2 OVISE cell potency over Comparator C: Comparator C 5.5 μM
Procedure, shortened: (§1)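 Cells in RPMI/10% FBS dosed with compound (0.5% DMSO final) for 16 h at 37 °C, 5% CO2, then EdU 0.5 μM final for 8 h before fixation and imaging. IC50 from 4-parameter logistic fit of EdU-positive cell fraction versus dose.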

[3] = biological target: T2, Cyclin Dependent Kinase 2/Cyclin E1 (CDK2-cycE1) (Homo sapiens, UniProt P24941); assay: CDK2-cycE1 TR-FRET (LANCE) enzyme assay; type: biochemical; details: for FS CDK1/CDK2 / FS CDK4/CDK2: fold selectivity; for CDK2 Ki fold change in potency versus Comparator D / CDK2 Ki fold change in potency versus Comparator E: in brackets after CDK2 Ki; for increased fold-selectivity CDK4/CDK2 over Comparator C: (+) sign after FS CDK4/CDK2;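 on improvement in potency against CDK2 (Ki) over Comparator C: fold lower CDK2 Ki than comparator c (Ki 0.032 µM)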
T2 construct: purchased ProQinase 0050-0055-1
Procedure, shortened: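 Compound dose responses pre-incubated 30 min with CDK2-cycE1 in 50 mM HEPES pH 7.5, 10 mM MgCl2, 2 mM TCEP, 0.05% BGG, 0.01% Brij 35. Reaction quenched with EDTA (15 mM final), phospho-MBP detected by Eu-anti-phospho-MBP TR-FRET (acceptor/donor ratio). Inhibition constants from Morrison equation.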

[4] = biological target: T3, Cyclin Dependent Kinase 4/Cyclin D3 (CDK4-cycD3) (Homo sapiens, UniProt P11802); assay: CDK4-cycD3 TR-FRET (LANCE) enzyme assay; type: biochemical; details: for Ki: Table O, enzymatic assay; for FS CDK4/CDK2: fold selectivity, enzymatic Ki ratio
T3 construct: purchased Carna Biosciences 04-105
T3 sequence (P11802 whole entry): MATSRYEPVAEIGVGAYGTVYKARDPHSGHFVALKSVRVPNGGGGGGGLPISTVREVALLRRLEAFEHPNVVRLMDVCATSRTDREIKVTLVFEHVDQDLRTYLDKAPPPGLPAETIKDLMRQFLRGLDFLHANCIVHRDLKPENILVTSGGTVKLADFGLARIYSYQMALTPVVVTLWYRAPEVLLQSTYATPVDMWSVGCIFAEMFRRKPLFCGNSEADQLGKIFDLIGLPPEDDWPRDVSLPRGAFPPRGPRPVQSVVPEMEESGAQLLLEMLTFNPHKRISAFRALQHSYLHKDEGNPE
T3 sequence (P30281 whole entry partner): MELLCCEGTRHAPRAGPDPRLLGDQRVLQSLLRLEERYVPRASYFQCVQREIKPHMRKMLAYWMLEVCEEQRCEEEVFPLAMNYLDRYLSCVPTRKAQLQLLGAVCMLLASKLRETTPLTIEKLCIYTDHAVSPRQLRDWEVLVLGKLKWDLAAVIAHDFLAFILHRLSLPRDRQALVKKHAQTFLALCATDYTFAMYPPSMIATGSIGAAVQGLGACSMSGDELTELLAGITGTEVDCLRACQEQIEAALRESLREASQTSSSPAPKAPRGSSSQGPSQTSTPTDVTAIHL
Procedure, shortened: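 Compound dose responses pre-incubated 30 min with enzyme mix in 50 mM HEPES pH 7.5, 10 mM MgCl2, 2 mM TCEP, 0.05% BGG, 0.01% Brij 35. Reaction quenched with EDTA (15 mM final); Eu-anti-phospho-4E-BP1 TR-FRET detection, acceptor/donor ratio. Ki derived by Morrison equation.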

SKOV-3 (ATCC HTB-77) = assay: SKOV-3 EdU incorporation cell proliferation assay (CDK4/6-dependent); type: cell-based; details: for IC50: Homo sapiens, cellular assay, read-out: CDK4/6 SKOV-3 IC50; for selectivity for CDK2 over CDK4 compared with Comparator E: SKOV-3/OVISE fold-selectivity cellular assay data; for FS SKOV-3/OVISE: fold selectivity, cellular IC50 ratio
Procedure, shortened: as §1

[5] = Table O, cellular SKOV-3 IC50 over OVISE IC50
[6] = Table O, enzymatic assay, read-out: CDK2 Ki
[7] = Table O, enzymatic CDK1 Ki over CDK2 Ki
[8] = Table O, enzymatic CDK4 Ki over CDK2 Ki
[9] = Table R, enzymatic assay, read-out: CDK2 Ki
[10] = Table S, enzymatic assay, read-out: CDK2 Ki
[11] = read-out: CDK2 activity / potency (enzymatic assay)
[12] = Table Q, enzymatic assay, read-out: CDK2 Ki

SMILES | IC50 (HCT116 cells) [nM] | Ki [1] [nM] | FS CDK1/CDK2 increased over Comparator D, (+) sign ([1]; Table R) | FS CDK1/CDK2 ([1]; Table R) | FS CDK1/CDK2 ([1]; Table S) | IC50 ([2]; Table O) [nM] | FS SKOV-3/OVISE [2, 5] | FS p-H3/OVISE ([2]; Table O) | CDK2 OVISE IC50 fold change in potency versus Comparator D [2] [fold] | CDK2 OVISE IC50 fold change in potency versus Comparator E [2] [fold] | Ki [3, 6] [nM] | FS CDK1/CDK2 [3, 7] | FS CDK4/CDK2 [3, 8] | Ki [3, 9] [nM] | CDK2 Ki fold change in potency versus Comparator D ([3]; Table R) [fold] | Ki [3, 10] [nM] | CDK2 Ki fold change in potency versus Comparator E ([3]; Table S) [fold] | Ki [4] [nM] | FS CDK4/CDK2 increased over Comparator D, (+) sign ([4]; Table R) | IC50 (SKOV-3 (ATCC HTB-77); SK-OV-3, Table O) [nM] | further results
CNC(=O)c1ccc(Nc2cc([C@H]3CC[C@@H](OC(=O)NC(C)(C)C)C3)[nH]n2)nc1 [Example 4E, (1R,3S)-3-(3-((5-(methylcarbamoyl)pyridin-2-yl)amino)-1H-pyrazol-5-yl)cyclopentyl tert-butylcarbamate] | 100 | 75 | (+) | 47 | 47 | 96 | 27 | 1.1 | 40 | 1.8 | 1.6 | 47 | 53 | 1.6 | 1.7 | 1.6 | 0.3 | 84 | (+) | 2600 | CDK2 cell potency compared with Comparator E [2]: more potent CDK2 cell inhibitors compared to Comparator E; FS CDK4/CDK2 ([4]; Table R): 53; FS CDK4/CDK2 increased over Comparator E, (+) sign ([4]; Table S): (+); FS CDK4/CDK2 ([4]; Table S): 53; IC50 (SKOV-3 (ATCC HTB-77); SK-OV-3, Table R): 2600 nM; IC50 (SKOV-3 (ATCC HTB-77); SK-OV-3, Table S): 2600 nM; selectivity for CDK2 over CDK4 compared with Comparator E (SKOV-3 (ATCC HTB-77)): increase in selectivity for CDK2 over CDK4; FS SKOV-3/OVISE increased over Comparator D, (+) sign (SKOV-3 (ATCC HTB-77); Table R): (+); FS SKOV-3/OVISE (SKOV-3 (ATCC HTB-77); Table R): 27; FS SKOV-3/OVISE increased over Comparator E, (+) sign (SKOV-3 (ATCC HTB-77); Table S): (+); FS SKOV-3/OVISE (SKOV-3 (ATCC HTB-77); Table S): 27
Cc1ncccc1Nc1cc([C@H]2CC[C@@H](OC(=O)NC(C)(C)C)C2)[nH]n1 [Example 4, (1R,3S)-3-(3-((2-methylpyridin-3-yl)amino)-1H-pyrazol-5-yl)cyclopentyl tert-butylcarbamate] | 30 | 25 | (+) | 110 | 110 | 20 | 46 | 1.5 | 190 | 8.5 | 0.22 | 110 | 160 | 0.22 | 12.3 | 0.22 | 2.4 | 34 | (+) | 920 | FS CDK1/CDK2 increased over Comparator E, (+) sign ([1]; Table S): (+); CDK2 cell potency compared with Comparator E [2]: more potent CDK2 cell inhibitors compared to Comparator E; Ki [3, 11]: ≤ 1 nM; FS CDK4/CDK2 ([4]; Table R): 160; FS CDK4/CDK2 increased over Comparator E, (+) sign ([4]; Table S): (+); FS CDK4/CDK2 ([4]; Table S): 160; selectivity for CDK2 over CDK4 compared with Comparator E (SKOV-3 (ATCC HTB-77)): increase in selectivity for CDK2 over CDK4; FS SKOV-3/OVISE increased over Comparator D, (+) sign (SKOV-3 (ATCC HTB-77); Table R): (+); FS SKOV-3/OVISE (SKOV-3 (ATCC HTB-77); Table R): 46; FS SKOV-3/OVISE increased over Comparator E, (+) sign (SKOV-3 (ATCC HTB-77); Table S): (+); FS SKOV-3/OVISE (SKOV-3 (ATCC HTB-77); Table S): 46
CN1CCC(NC(=O)O[C@@H]2CC[C@H](c3cc(Nc4cccnn4)n[nH]3)C2)CC1 [Example 3E, (1R,3S)-3-(3-(pyridazin-3-ylamino)-1H-pyrazol-5-yl)cyclopentyl (1-methylpiperidin-4-yl)carbamate] | 1400 | 280 |  |  |  | 420 | 31 | 3.3 |  |  | 10 | 28 | 72 |  |  |  |  | 720 |  | 13000 | 
CC(C)NC(=O)O[C@@H]1CC[C@H](c2cc(Nc3ccnc(C(F)(F)F)n3)n[nH]2)C1 [Example 2L, (1R,3S)-3-(3-((2-(trifluoromethyl)pyrimidin-4-yl)amino)-1H-pyrazol-5-yl)cyclopentyl isopropylcarbamate] | 1.8 | 2.9 |  |  |  | 12 | 53 | 0.15 |  |  | 0.17 | 17 | 650 |  |  |  |  | 110 |  | 640 | increased fold-selectivity SKOV-3/OVISE over Comparator C ([2]; Table Q): (+) (The (+) sign in Table Q signifies desirable increased fold-selectivity of the exemplary compounds over Comparator C); FS SKOV-3/OVISE ([2]; Table Q, cellular): 53; improvement in CDK2 OVISE cell potency over Comparator C ([2]; Table Q): 458 fold; improvement in potency against CDK2 (Ki) over Comparator C [3]: 188 fold; increased fold-selectivity CDK4/CDK2 over Comparator C ([3]; Table Q): (+) (The (+) sign in Table Q signifies desirable increased fold-selectivity of the exemplary compounds over Comparator C); Ki [3, 12]: 0.17 nM; FS CDK1/CDK2 ([3]; Table Q, enzymatic): 17; FS CDK4/CDK2 ([3]; Table Q, enzymatic): 650; IC50 (SKOV-3 (ATCC HTB-77); SK-OV-3, Table Q): 640 nM
Cc1nccnc1Nc1cc([C@H]2CC[C@@H](OC(=O)NC(C)C)C2)[nH]n1 [Example 2T, (1R,3S)-3-(3-((3-methylpyrazin-2-yl)amino)-1H-pyrazol-5-yl)cyclopentyl isopropylcarbamate] | 120 | 64 |  |  |  | 52 | 29 | 2.3 |  |  | 0.86 | 74 | 170 |  |  |  |  | 150 |  | 1500 | increased fold-selectivity SKOV-3/OVISE over Comparator C ([2]; Table Q): (+) (The (+) sign in Table Q signifies desirable increased fold-selectivity of the exemplary compounds over Comparator C); FS SKOV-3/OVISE ([2]; Table Q, cellular): 29; improvement in CDK2 OVISE cell potency over Comparator C ([2]; Table Q): 106 fold; improvement in potency against CDK2 (Ki) over Comparator C [3]: 37 fold; increased fold-selectivity CDK1/CDK2 over Comparator C ([3]; Table Q, (+) sign after FS CDK1/CDK2): (+) (The (+) sign in Table Q signifies desirable increased fold-selectivity of the exemplary compounds over Comparator C); increased fold-selectivity CDK4/CDK2 over Comparator C ([3]; Table Q): (+) (The (+) sign in Table Q signifies desirable increased fold-selectivity of the exemplary compounds over Comparator C); Ki [3, 12]: 0.86 nM; FS CDK1/CDK2 ([3]; Table Q, enzymatic): 74; FS CDK4/CDK2 ([3]; Table Q, enzymatic): 170; Ki [3, 11]: ≤ 1 nM; IC50 (SKOV-3 (ATCC HTB-77); SK-OV-3, Table Q): 1500 nM
CC(C)(C)NC(=O)O[C@@H]1CC[C@H](c2cc(Nc3ncccn3)n[nH]2)C1 [Example 4J, (1R,3S)-3-(3-(pyrimidin-2-ylamino)-1H-pyrazol-5-yl)cyclopentyl tert-butylcarbamate] | 360 | 170 | (+) | 68 | 68 | 320 | 3.8 | 1.1 | 12 | 0.5 | 2.5 | 68 | 4.4 | 2.5 | 1.1 | 2.5 | 0.2 | 11 | (+) | 1200 | FS CDK1/CDK2 increased over Comparator E, (+) sign ([1]; Table S): (+); FS CDK4/CDK2 ([4]; Table R): 4.4; FS CDK4/CDK2 ([4]; Table S): 4.4; IC50 (SKOV-3 (ATCC HTB-77); SK-OV-3, Table R): 1200 nM; IC50 (SKOV-3 (ATCC HTB-77); SK-OV-3, Table S): 1200 nM; FS SKOV-3/OVISE increased over Comparator D, (+) sign (SKOV-3 (ATCC HTB-77); Table R): (+); FS SKOV-3/OVISE (SKOV-3 (ATCC HTB-77); Table R): 3.8; FS SKOV-3/OVISE (SKOV-3 (ATCC HTB-77); Table S): 3.8

— patent US20240425478A1, “CYCLOPENTYLPYRAZOLE CDK2 INHIBITORS” (Genentech, Inc., priority 2021, published 2024)
